Laboratory results taken from patent publication US11236055B2 (Venenum Biodesign, LLC, priority 2016, dated 2022).
Where two headings read alike, the source gives them in different places.

Columns and labels:
Assay type in all cases: in vivo, mouse
[1] = system: DIO mice; assay: Weight loss after multiple days of dosing in DIO mice; details: DIO mice on high fat diet, oral BID for 12 days
Experimental: Monitoring of Weight Loss after Multiple Days of Dosing Compounds
Compounds of the present invention were dosed for multiple days and were evaluated for their ability to cause mice to lose weight. In the next series of studies (Examples 66-70), Male DIO mice were received at 12 weeks of age (from Taconic), and were single-housed at the testing facility and acclimated for at least 2 weeks. The mice were provided a high fat diet [Research Diet D12492 (60% Fat kcal)] while in the testing facility. Before the study initiation, the animals were randomized into 5 experimental groups by body weight. The vehicle group contained only 0.5% carboxymethylcellulose (medium viscosity)+0.25% Tween-80. The second group contained 10 mg/kg of the DPP-IV inhibitor Linagliptin while the third group contained 10 mg/kg Compound 20BG. The fourth group contained the combination of 10 mg/kg Linagliptin and 10 mg/kg Compound 20BG. The fifth group was the positive control for weight loss, Liraglutide. All mice, except the Liraglutide group, were dosed BID at approximately 6:00 am and again at approximately […]. The positive control liraglutide was administered at a dose of 0.2 mg/kg subcutaneously in the afternoon.
Compounds of the present invention were evaluated for their ability to cause mice to lose weight. Mice were dosed compounds for 12 days and body weights were recorded twice a week.

[2] = system: GLP-1 plasma level in DIO mice; assay: GLP-1 levels after multiple days of dosing in DIO mice; details: 12 days BID oral, in combination with linagliptin, 6 h after final dose
Experimental: GLP-1 Levels after Multiple Days of Dosing Compounds
Compounds of the present invention were dosed for multiple days and were evaluated to determine if they produce sustained GLP-1 levels. In this example, the protocol from Example 66 was utilized. In week 2 of the study, mice were euthanized and blood was collected 6 hours after the final dose of compound. For the GLP-1 assay, 200-250 μL of blood was placed in an EDTA K^2+ tube containing 5 μL of 40 mg/mL aprotinin (Sigma A1153) and 1 μL of 10 mM sitagliptin (Sigma S8576) and plasma was separated by centrifugation. Plasma samples were stored at −20° C. until analysis. The active form of GLP-1 [GLP-1 (7-36) amide] was analyzed using Meso Scale Discovery System according to the manufacturer's directions (item number K150HYC). Values of p<0.05 are considered statistically significant.

[3] = Comparison of PK in DIO mice and lean mice; details: for Cmax / Tmax / AUC(0-t): mouse, plasma, po; for AUC(0-t): read-out: AUC (0-4 h)
Experimental: Comparison of PK in DIO Mice and Lean Mice
The PK characteristics of Compound 20AA were examined in non-fasted lean C57BL/6N and DIO mice (Taconic). Compound 20AA was orally administered to both groups at 10 mg/kg by oral gavage and plasma concentration of the compound was determined as described in Example 59.
In addition, PK parameters were determined for Compound 20AA (i.e., Cmax, Tmax and AUC) following oral administration in four groups of mice: (i) fasted lean mice; (ii) non-fasted lean mice; (iii) non-fasted DIO mice; and (iv) lean mice receiving ABT.

[4] = Absorption vs. first pass metabolism: Cmax with and without 1-aminobenzotriazole (ABT) pre-treatment; details: ICR, mouse, plasma; lean mice receiving ABT (150 mg/kg) 2 h before compound, 10 mg/kg oral
Experimental: Absorption Vs. First Pass Metabolism
In this study, the absorption was examined as compared to first pass metabolism of the compounds of the present invention. ICR mice (Hilltop) were pre-treated with 1-aminobenzotriazole (ABT), a nonselective inhibitor of cytochrome P450 enzymes to inhibit Cyp450-mediated degradation of the compounds in liver.
ABT was administered at 150 mg/kg in 5 mL/kg of 0.04% ethanol in 0.5% methyl cellulose (w/v) by oral gavage, 2 hours prior to test compound administration. The compounds 20AA and 20AC were administered by oral gavage at 10 mg/kg in 10 mL/kg of 20% PEG400/80% (0.5% (w/v) CMC containing 0.25% (v/v) Tween 80) (v/v), 2 hours after the ABT treatment. Blood was collected via orbital bleeding at predose, 0.25, 0.5, 1, 2, and 4 hours post-dose and the quantification of compound levels in plasma was accomplished by means of LC-MS/MS analysis as described in Example 59. Reference compound “Propranolol” that is known to be metabolized by Cyp450 was used as a positive control.
FIG. 4 depicts the Cmax (nM) of the compounds of the present invention with and without ABT pre-treatment.

[5] = C57BL/6N, 10 mg/kg, DIO mice, non-fasted, 10 mpk
[6] = C57BL/6N, 10 mg/kg, Lean mice, non-fasted, 10 mpk
[7] = C57BL/6N, 10 mg/kg, Non-fasted DIO mice, 10 mg/kg oral
[8] = C57BL/6N, 10 mg/kg, Non-fasted Lean mice, 10 mg/kg oral
[9] = Fasted Lean mice, oral administration

Cmax [3, 5] | Tmax [3, 5] | Cmax [3, 6] | Tmax [3, 6] | Cmax [3, 7] | Tmax [3, 7] | AUC(0-t) [3, 7] | Cmax [3, 8] | Tmax [3, 8] | AUC(0-t) [3, 8] | PK profile (Cmax, Tmax, AUC) ([3]; lean and DIO mice, fasted or non-fasted, oral administration) | Cmax [3, 9] | Tmax [3, 9] | AUC(0-t) [3, 9] | Cmax [4] | Tmax [4] | Compound | body weight change [1] | GLP-1 plasma level versus vehicle [2]
 |  |  |  |  |  |  |  |  |  |  |  |  |  |  |  | CCc1cnccc1-c1cccc([C@H](C)N(CCCC(=O)NCCS(=O)(=O)NCC(=O)O)S(=O)(=O)c2ccccc2C(F)(F)F)c1 [Compound 20BG] | modest weight loss | significantly increased
1.7 nM | 1 h | 3 nM | 1 h | 1.7 nM | 1 h | 7.6 ng·h/mL | 3 nM | 0.25 h | 4 ng·h/mL | low PK profile | 7.2 nM | 1 h | 26 ng·h/mL | 2.6 nM | 0.25 h | Cc1cnccc1-c1cccc(C(C)(C)N(CCCC(=O)NCCS(=O)(=O)O)S(=O)(=O)c2ccccc2C(F)(F)F)c1 [Compound 20AA, 2-(4-(N-(2-(3-(3-methylpyridin-4-yl)phenyl)propan-2-yl)-2-(trifluoromethyl)phenylsulfonamido)butanamido)ethanesulfonic acid] |  | 
